Measured values as given in patent publication US7335672B2, “Vanilloid receptor ligands and their use in treatments” (Amgen Inc., priority 2004, dated 2008).

Work on CC(C)CN1CCCC[C@H]1CNc1nc(Oc2cccc3[nH]c(=O)c(N)nc23)cc(-c2ccc(C(F)(F)F)cc2)n1 [Example 120, (S)-3-Amino-5-(2-((1-isobutylpiperidin-2-yl)methylamino)-6-(4-(trifluoromethyl)phenyl)pyrimidin-4-yloxy)quinoxalin-2(1H)-one] yielded a melting point of 228 °C. Work on CC(C)CN1CCCC[C@@H]1CNc1nc(Oc2cccc3[nH]c(=O)c(N)nc23)cc(-c2ccc(C(F)(F)F)cc2)n1 [Example 121, (R)-3-Amino-5-(2-((1-isobutylpiperidin-2-yl)methylamino)-6-(4-(trifluoromethyl)phenyl)pyrimidin-4-yloxy)quinoxalin-2(1H)-one] yielded a melting point of 229 °C. CC(=O)Nc1nc2c(Oc3cc(-c4ccc(C(F)(F)F)cc4)nc(N4CCN(C(=O)OC(C)(C)C)CC4)n3)cccc2s1 [Example 34, tert-Butyl 4-(4-(2-acetamidobenzo[d]thiazol-4-yloxy)-6-(4-(trifluoromethyl)phenyl)pyrimidin-2-yl)piperazine-1-carboxylate] gave a melting point of 211 °C. Work on CC(=O)Nc1nc2c(Oc3cc(-c4ccc(C(F)(F)F)cc4)nc(NCC4CCCN(C(=O)OC(C)(C)C)C4)n3)cccc2s1 (centres unmarked) [Example 70] yielded a melting point of 128 °C. Work on CC(=O)Nc1nc2c(Oc3cc(-c4ccc(C(F)(F)F)cc4)nc(N4CCCC(O)C4)n3)cccc2s1 (centres unmarked) [Example 39] yielded a melting point of 198 °C. For COC[C@H](C)Nc1nc(Oc2cccc3[nH]c(=O)c(N)nc23)cc(-c2ccc(C(F)(F)F)cc2)n1 [Example 114], the melting point was 243 °C. For CS(=O)(=O)N1CCN(c2nc(Oc3cccc4[nH]c(=O)c(N)nc34)cc(-c3ccc(C(F)(F)F)cc3)n2)CC1 [Example 117, 3-amino-5-({2-[4-(methylsulfonyl)piperazin-1-yl]-6-[4-(trifluoromethyl)phenyl]pyrimidin-4-yl}oxy)quinoxalin-2(1H)-one], the melting point was > 300 °C. CC(=O)Nc1nc2c(Oc3cc(-c4ccc(C(F)(F)F)cc4)nc(N4CCC(C(=O)O)CC4)n3)cccc2s1 [Example 42, 1-{4-{[2-(acetylamino)-1,3-benzothiazol-4-yl]oxy}-6-[4-(trifluoromethyl)phenyl]pyrimidin-2-yl}piperidine-4-carboxylic acid] showed a melting point of 277 to 278 °C. For CC(=O)Nc1nc2c(Oc3cc(-c4ccc(C(F)(F)F)cc4)nc(NCc4cccnc4)n3)cccc2s1 [Example 53], the melting point was 240 °C. With CS(=O)(=O)Nc1cccc(CNc2nc(Oc3cccc4[nH]c(=O)c(N)nc34)cc(-c3ccc(C(F)(F)F)cc3)n2)c1 [Example 116, N-{3-[({4-[(3-amino-2-oxo-1,2-dihydroquinoxalin-5-yl)oxy]-6-[4-(trifluoromethyl)phenyl]pyrimidin-2-yl}amino)methyl]phenyl}methanesulfonamide] the melting point was > 300 °C. Molecule CC(=O)Nc1nc2c(Oc3cc(-c4ccc(C(F)(F)F)cc4)nc(NC[C@@H]4CCCN4C(=O)OC(C)(C)C)n3)cccc2s1 [Example 71, tert-butyl (2S)-2-[({4-{[2-(acetylamino)-1,3-benzothiazol-4-yl]oxy}-6-[4-(trifluoromethyl)phenyl]pyrimidin-2-yl}amino)methyl]pyrrolidine-1-carboxylate] has a melting point of 132 °C. For COCC(C)Nc1nc(Oc2cccc3[nH]c(=O)c(N)nc23)cc(-c2ccc(C(F)(F)F)cc2)n1 (centres unmarked) [Example 109], the melting point was 241 °C. CC(=O)Nc1nc2c(Oc3cc(-c4ccc(C(F)(F)F)cc4)nc(-c4cccnc4)n3)cccc2s1 [Example 9] showed a melting point of 268 to 270 °C. With CC(Nc1nc(Oc2cccc3[nH]c(=O)c(N)nc23)cc(-c2ccc(C(F)(F)F)cc2)n1)c1ccccn1 (centres unmarked) [Example 113] the melting point was 289 °C.
